The structures appear in SMILES notation. pIC50: −log10 of the molar value.

What is called pIC50 is −log10 of the IC50, conventionally taken in molar units.

For this test, the target named is HDAC2 (Homo sapiens, UniProt Q92769). The test can be described thus: HDAC2 fluorescence inhibition assay (tBoc-Lys(Ac)-AMC).
HDAC2, sequence (Q92769 with tags, fused parts or gaps): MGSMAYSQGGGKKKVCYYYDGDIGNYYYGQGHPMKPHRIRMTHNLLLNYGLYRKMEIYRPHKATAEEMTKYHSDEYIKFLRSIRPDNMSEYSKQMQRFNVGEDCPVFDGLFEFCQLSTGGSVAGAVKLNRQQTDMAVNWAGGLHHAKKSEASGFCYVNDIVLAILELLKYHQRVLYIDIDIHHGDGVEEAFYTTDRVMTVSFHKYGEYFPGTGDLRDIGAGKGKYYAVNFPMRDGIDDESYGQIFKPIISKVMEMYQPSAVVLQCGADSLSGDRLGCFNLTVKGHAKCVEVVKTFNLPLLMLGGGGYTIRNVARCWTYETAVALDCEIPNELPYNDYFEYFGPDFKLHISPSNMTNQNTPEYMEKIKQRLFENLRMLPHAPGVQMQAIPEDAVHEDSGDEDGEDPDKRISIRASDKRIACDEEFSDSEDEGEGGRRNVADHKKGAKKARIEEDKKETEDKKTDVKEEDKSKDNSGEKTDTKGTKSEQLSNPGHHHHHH
`COc1ccc2c(c1)NC(=O)N(Cc1ccc(C(=O)Nc3ccccc3N)cc1)S2(=O)=O` [Example 10, N-(2-Amino-phenyl)-4-(6-methoxy-1,1,3-trioxo-3,4-dihydro-1H-1λ^6-benzo[1,2,4]thiadiazin-2-ylmethyl)-benzamide] had a pIC50 above 7.30. Under `Nc1ccccc1NC(=O)c1ccc(CN2C(=O)Nc3ccccc3S2(=O)=O)nc1` [Example 24, N-(2-Amino-phenyl)-6-(1,1,3-trioxo-3,4-dihydro-1H-1λ^6-benzo[1,2,4]thiadiazin-2-ylmethyl)-nicotinamide] stands 7.00 to 7.30; under `Nc1ccccc1NC(=O)c1ccc(CN2C(=O)Nc3ccccc3S2(=O)=O)cc1` [Example 1, N-(2-Amino-phenyl)-4-(1,1,3-trioxo-3,4-dihydro-1H-1λ^6-benzo[1,2,4]thiadiazin-2-ylmethyl)-benzamide], above 7.30. `Nc1ccccc1NC(=O)c1ccc(CN2C(=O)Nc3cc(C(F)(F)F)ccc3S2(=O)=O)cc1` [Example 11, N-(2-Amino-phenyl)-4-(1,1,3-trioxo-6-trifluoromethyl-3,4-dihydro-1H-1λ^6-benzo[1,2,4]thiadiazin-2-ylmethyl)-benzamide] gave a pIC50 above 7.30. The same measure for `NC1=NS(=O)(=O)c2ccccc2N1Cc1ccc(C(=O)Nc2ccccc2N)cc1` [Example 2, 4-(3-Amino-1,1-dioxo-1H-1λ^6-benzo[1,2,4]thiadiazin-4-ylmethyl)-N-(2-amino-phenyl)-benzamide]: 6.30 to 7.00.

`Nc1ccccc1NC(=O)c1ccc(CN2C(=O)Nc3ccccc3S2(=O)=O)c(F)c1` [Example 25, N-(2-Amino-phenyl)-3-fluoro-4-(1,1,3-trioxo-3,4-dihydro-1H-1λ^6-benzo[1,2,4]thiadiazin-2-ylmethyl)-benzamide] gave a negative logarithm of the IC50 (pIC50) above 7.30. The same measure for `Nc1ccccc1NC(=O)c1ccc(CN2C(=S)Nc3ccccc3S2(=O)=O)cc1` [Example 4, N-(2-Amino-phenyl)-4-(1,1-dioxo-3-thioxo-3,4-dihydro-1H-1λ^6-benzo[1,2,4]thiadiazin-2-ylmethyl)-benzamide]: above 7.30. Under `COc1ccc2c(c1)NC(=S)N(Cc1ccc(C(=O)Nc3cc(F)ccc3N)cc1)S2(=O)=O` [Example 19, N-(2-Amino-5-fluoro-phenyl)-4-(6-methoxy-1,1-dioxo-3-thioxo-3,4-dihydro-1H-1λ^6-benzo[1,2,4]thiadiazin-2-ylmethyl)-benzamide] stands above 7.30. Under `COc1ccc2c(c1)N=C(SC)N(Cc1ccc(C(=O)Nc3ccccc3N)cc1)S2(=O)=O` [Example 14, N-(2-Amino-phenyl)-4-(6-methoxy-3-methylsulfanyl-1,1-dioxo-1H-1λ6-benzo[1,2,4]thiadiazin-2-ylmethyl)-benzamide] stands 7.00 to 7.30; under `Nc1ccccc1NC(=O)c1ccc(CN2C(=S)Nc3cc(F)ccc3S2(=O)=O)cc1` [Example 18, N-(2-Amino-phenyl)-4-(6-fluoro-1,1-dioxo-3-thioxo-3,4-dihydro-1H-1λ^6-benzo[1,2,4]thiadiazin-2-ylmethyl)-benzamide], above 7.30; under `Nc1ccccc1NC(=O)c1ccc(CN2C(=O)Nc3ccc(-c4cccs4)cc3S2(=O)=O)cc1` [Example 31, N-(2-Amino-phenyl)-4-(1,1,3-trioxo-7-thiophen-2-yl-3,4-dihydro-1H-1λ^6-benzo[1,2,4]thiadiazin-2-ylmethyl)-benzamide], above 7.30. Molecule `Nc1ccc(F)cc1NC(=O)c1ccc(CN2C(=O)Nc3ccccc3S2(=O)=O)cc1` [Example 22, N-(2-Amino-5-fluoro-phenyl)-4-(1,1,3-trioxo-3,4-dihydro-1H-1λ^6-benzo[1,2,4]thiadiazin-2-ylmethyl)-benzamide] showed a pIC50 above 7.30.

Turning to `Nc1ccccc1NC(=O)c1ccc(CN2C(=O)Nc3ccc(-c4cccnc4)cc3S2(=O)=O)cc1` [Example 29, N-(2-Amino-phenyl)-4-(1,1,3-trioxo-7-pyridin-3-yl-3,4-dihydro-1H-1λ^6-benzo[1,2,4]thiadiazin-2-ylmethyl)-benzamide], the pIC50 was above 7.30. Under `COc1ccc2c(c1)NC(=S)N(Cc1ccc(C(=O)Nc3ccccc3N)cc1)S2(=O)=O` [Example 12, N-(2-Amino-phenyl)-4-(6-methoxy-1,1-dioxo-3-thioxo-3,4-dihydro-1H-1λ^6-benzo[1,2,4]thiadiazin-2-ylmethyl)-benzamide] stands above 7.30; under `Nc1ccccc1NC(=O)c1ccc(CN2C(=O)NCc3ccccc32)cc1` [Example 3, N-(2-aminophenyl)-4-((2-oxo-3,4-dihydroquinazolin-1(2H),-yl)methyl)benzamide], 6.30 to 7.00. On to `Nc1ccccc1NC(=O)c1ccc(CN2C(=O)Nc3ccc(-c4ccsc4)cc3S2(=O)=O)cc1` [Example 26, N-(2-Amino-phenyl)-4-(1,1,3-trioxo-7-thiophen-3-yl-3,4-dihydro-1H-1λ^6-benzo[1,2,4]thiadiazin-2-ylmethyl)-benzamide], for which the pIC50 was above 7.30.

`CNC1=Nc2ccccc2S(=O)(=O)N1Cc1ccc(C(=O)Nc2ccccc2N)cc1` [Example 6, N-(2-Amino-phenyl)-4-(3-methylamino-1,1-dioxo-1H-1λ^6-benzo[1,2,4]thiadiazin-2-ylmethyl)-benzamide] gave a negative logarithm of the IC50 (pIC50) of 6.30 to 7.00. The same measure for `CCSC1=Nc2ccccc2S(=O)(=O)N1Cc1ccc(C(=O)Nc2ccccc2N)cc1` [Example 9, N-(2-Amino-phenyl)-4-(3-ethylsulfanyl-1,1-dioxo-1H-1λ^6-benzo[1,2,4]thiadiazin-2-ylmethyl)-benzamide]: 6.30 to 7.00. Under `Nc1ccccc1NC(=O)c1ccc(CN2C(=O)Nc3ccc(-c4ccncc4)cc3S2(=O)=O)cc1` [Example 27, N-(2-Amino-phenyl)-4-(1,1,3-trioxo-7-pyridin-4-yl-3,4-dihydro-1H-1λ^6-benzo[1,2,4]thiadiazin-2-ylmethyl)-benzamide] stands above 7.30. The same measure for `Nc1ccccc1NC(=O)c1ccc(CN2C(=O)Nc3cc(F)ccc3S2(=O)=O)cc1` [Example 17, N-(2-Amino-phenyl)-4-(6-fluoro-1,1,3-trioxo-3,4-dihydro-1H-1λ^6-benzo[1,2,4]thiadiazin-2-ylmethyl)-benzamide]: 6.30 to 7.00. Consider `CSC1=Nc2ccccc2S(=O)(=O)N1Cc1ccc(C(=O)Nc2ccccc2N)cc1` [Example 5, N-(2-Amino-phenyl)-4-(3-methylsulfanyl-1,1-dioxo-1H-1λ^6-benzo[1,2,4]thiadiazin-2-ylmethyl)-benzamide], for which the negative logarithm of the IC50 (pIC50) was 6.30 to 7.00. Under `CSC1=Nc2cc(C(F)(F)F)ccc2S(=O)(=O)N1Cc1ccc(C(=O)Nc2ccccc2N)cc1` [Example 16, N-(2-Amino-phenyl)-4-(3-methylsulfanyl-1,1-dioxo-6-trifluoromethyl-1H-1λ6-benzo[1,2,4]thiadiazin-2-ylmethyl)-benzamide] stands below 6.30. Under `Nc1ccccc1NC(=O)c1ccc(CN2C(=O)Nc3ccc(-c4cncnc4)cc3S2(=O)=O)cc1` [Example 28, N-(2-Amino-phenyl)-4-(1,1,3-trioxo-7-pyrimidin-5-yl-3,4-dihydro-1H-1λ^6-benzo[1,2,4]thiadiazin-2-ylmethyl)-benzamide] stands above 7.30. In the case of `NC1=Nc2ccccc2S(=O)(=O)N1Cc1ccc(C(=O)Nc2ccccc2N)cc1` [Example 7, 4-(3-Amino-1,1-dioxo-1H-1λ^6-benzo[1,2,4]thiadiazin-2-ylmethyl)-N-(2-amino-phenyl)-benzamide], the pIC50 is 7.00 to 7.30. Under `COc1ccc2c(c1)NC(=O)N(Cc1ccc(C(=O)Nc3cc(F)ccc3N)cc1)S2(=O)=O` [Example 20, N-(2-Amino-5-fluoro-phenyl)-4-(6-methoxy-1,1,3-trioxo-3,4-dihydro-1H-1λ6-benzo[1,2,4]thiadiazin-2-ylmethyl)-benzamide] stands above 7.30. The same measure for `Nc1ccccc1NC(=O)c1ccc(CN2C(=O)Nc3ccc(-c4ccoc4)cc3S2(=O)=O)cc1` [Example 32]: above 7.30. The same measure for `Nc1ccccc1NC(=O)c1ccc(CN2C(=O)Nc3ccncc3S2(=O)=O)cc1` [Example 35, N-(2-Amino-phenyl)-4-(1,1,3-trioxo-3,4-dihydro-1H-1λ^6-pyrido[4,3-e][1,2,4]thiadiazin-2-ylmethyl)-benzamide]: below 6.30; for `CN1Cc2ccccc2N(Cc2ccc(C(=O)Nc3ccccc3N)cc2)C1=S` [Example 33, N-(2-Amino-phenyl)-4-(3-methyl-2-thioxo-3,4-dihydro-2H-quinazolin-1-ylmethyl)-benzamide]: above 7.30; for `CN1Cc2ccccc2N(Cc2ccc(C(=O)Nc3ccccc3N)cc2)C1=O` [Example 15, N-(2-Amino-phenyl)-4-(3-methyl-2-oxo-3,4-dihydro-2H-quinazolin-1-ylmethyl)-benzamide]: above 7.30.

In the case of `Nc1ccccc1NC(=O)c1ccc(CN2C(=O)Nc3ncc(Cl)cc3S2(=O)=O)cc1` [Example 21, N-(2-Amino-phenyl)-4-(7-chloro-1,1,3-trioxo-3,4-dihydro-1H-1λ^6-pyrido[2,3-e][1,2,4]thiadiazin-2-ylmethyl)-benzamide], the pIC50 was above 7.30. Under `Nc1ccccc1NC(=O)c1ccc(CN2C(=S)Nc3cc(C(F)(F)F)ccc3S2(=O)=O)cc1` [Example 13, N-(2-Amino-phenyl)-4-(1,1-dioxo-3-thioxo-6-trifluoromethyl-3,4-dihydro-1H-1λ^6-benzo[1,2,4]thiadiazin-2-ylmethyl)-benzamide] stands 7.00 to 7.30; under `Nc1ccccc1NC(=O)c1ccc(CN2C(=O)Nc3ccc(-c4ccco4)cc3S2(=O)=O)cc1` [Example 30, N-(2-Amino-phenyl)-4-(7-furan-2-yl-1,1,3-trioxo-3,4-dihydro-1H-1λ^6-benzo[1,2,4]thiadiazin-2-ylmethyl)-benzamide], above 7.30. The same measure for `Nc1ccccc1NC(=O)c1ccc(CN2C(=O)Nc3ccc(Br)cc3S2(=O)=O)cc1` [Example 23, N-(2-Amino-phenyl)-4-(7-bromo-1,1,3-trioxo-3,4-dihydro-1H-1λ^6-benzo[1,2,4]thiadiazin-2-ylmethyl)-benzamide]: above 7.30; for `Nc1ccccc1NC(=O)c1ccc(CN2C(=O)Nc3ccccc3S2(=O)=O)s1` [Example 34, 5-(1,1,3-Trioxo-3,4-dihydro-1H-1λ^6-benzo[1,2,4]thiadiazin-2-ylmethyl)-thiophene-2-carboxylic acid(2-amino-phenyl)-amide]: 7.00 to 7.30.

For the origin of these results see patent US7642253B2, “Histone deacetylase inhibitors” (Takeda San Diego, Inc., priority 2005, dated 2010).
